Experimental findings from ChEMBL document CHEMBL1201862, “PubChem BioAssay data set” (2004) are described below.

What all share (experiment): inhibition of tumour cell growth, NCI panel, 48 h
Assay [1] has as its system HOP-62.
The test system of assay [2] is MCF7.
In assay [3] the test system is IGROV-1.
For assay [4], the system named is COLO 205.
Assay [5] has as its system RPMI-8226.
Assay [6] relates to NCI-H23.
The subject of assay [7] is KM12.
Assay [8] has as its system TK-10.
Assay [9] concerns BT-549.
The test system of assay [10] is K562.
Assay [11] relates to OVCAR-4.
Assay [12] relates to A498.
Assay [13] relates to SK-MEL-28.
For assay [14], the system named is SK-OV-3.
Assay [15] deals with M14.
Assay [16] concerns HOP-92.
For assay [17], the system named is HCT-15.
Assay [18] has as its system A549.
Assay [19] has as its system NCI-H522.
Assay [20] concerns T47D.

SMILES strings stand for the structures.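 Test compounds were applied to cells in 96-well plates for 48 hours at 5 doses. Here, GI50 denotes the concentration required for 50% inhibition of growth.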 Active and inactive are the calls of the source. No stated cut-off is given here; in the data, active = GI50 up to about 1.1 µM and inactive = higher.

As to `COc1cccc2c1CCc1cc3c(N)nc(N)nc3nc1-2`, the GI50 was 5.4 µM (inactive) in [1]; 6.31 µM (inactive) in assay [2]; 5.86 µM (inactive) in assay [3]; 4.02 µM (inactive) in assay [4]; 2.12 µM (inactive) in assay [5]; 5.06 µM (inactive) in assay [6]. The GI50 in [7] is 5.47 µM (inactive); in assay [8], 10.9 µM (inactive); in assay [9], 26.4 µM (inactive); in [10], 2.23 µM (inactive); in [11], 6.22 µM (inactive); in assay [12] it was 9.27 µM (inactive). Moreover, the GI50 in [13] was 2.78 µM (inactive); in [14], 17.7 µM (inactive); in [15], 4.22 µM (inactive); in assay [16] it was 14 µM (inactive); in assay [17], 5.21 µM; in [18], 2.45 µM (inactive). Also, the GI50 in assay [19] was 5.18 µM (inactive); in [20], 7.94 µM (inactive).

`Cn1cc(-c2cnc(-c3cn(C)c4ccccc34)cn2)c2ccccc21`: the GI50 is 6.59 µM (inactive) in assay [1]; 0.194 µM (active) in [2]; 3.8 µM (inactive) in assay [3]; 3.26 µM (inactive) in assay [4]; 4.98 µM (inactive) in assay [5]; 4.25 µM (inactive) in assay [6]. The GI50 was 0.0471 µM (active) in [7]; 18.6 µM (inactive) in assay [8]; 14.1 µM (inactive) in assay [9]; 3.8 µM (inactive) in [10]; 11.6 µM (inactive) in assay [11]; 4.69 µM (inactive) in assay [12]. Moreover, the GI50 in [13] was 6.37 µM (inactive); in [14], 14.6 µM (inactive); in assay [15], 3.47 µM (inactive); in [16] it was 12.9 µM (inactive); in assay [17], 0.187 µM; in assay [18], 6.21 µM (inactive). For the same compound, the GI50 in [19] was 1.51 µM (inactive); in assay [20] it was 44.8 µM (inactive).

As for `Cc1cc(NC[C@H](O)[C@H](O)[C@H](O)CO)c(Sc2cc(=O)[nH]c(=O)[nH]2)cc1C`, the GI50 in assay [1], in assay [2], in [3], in [4], in assay [5] and in [6] was > 62.5 µM (inactive) in each case. The GI50 in assay [7], in assay [8], in assay [9], in assay [10], in assay [11] and in [12] was > 62.5 µM (inactive) in each case. The GI50 is > 62.5 µM (inactive) in assay [13]; > 62.5 µM (inactive) in [14]; > 62.5 µM (inactive) in assay [15]; > 62.5 µM (inactive) in assay [16]; greater than 62.5 µM in assay [17]; > 62.5 µM (inactive) in [18]. Further, the GI50 in [19] and in [20] was > 62.5 µM (inactive) throughout.

On to `Cc1cc(NS(=O)(=O)c2ccc(Nc3c4ccccc4nc4c(C(=O)NC(CO)(CO)CO)cccc34)cc2)no1`, for which the GI50 in assay [1] was 25.1 µM (inactive); in [2] it was 23.3 µM (inactive); in assay [3], 29 µM (inactive); in assay [4], 42.4 µM (inactive); in assay [5] it was 19.7 µM (inactive); in assay [6], 43.6 µM (inactive). In addition, the GI50 in [7] is 25.2 µM (inactive); in [8] it was 29.2 µM (inactive); in [9], 39.2 µM (inactive); in assay [10] it was 33.3 µM (inactive); in [11], 48.8 µM (inactive); in assay [12], 47.1 µM (inactive). In addition, the GI50 in assay [13] is 52.8 µM (inactive); in assay [14], 35.2 µM (inactive); in assay [15], 52.5 µM (inactive); in assay [16], 32.7 µM (inactive); in [17], 61.7 µM; in assay [18], 48.1 µM (inactive). The results for the GI50 in assay [19] and in [20] were 15.8 µM (inactive) and 26.5 µM (inactive), respectively.

Take `Oc1ncc(N(CCCl)CCCl)c(O)n1` [URACIL MUSTARD]: the GI50 in assay [1] was 15 µM (inactive); in assay [2] it was 14.6 µM (inactive); in [3] it was 81.3 µM (inactive); in assay [4], 63 µM (inactive); in [5] it was 41.6 µM (inactive); in [6] it was 15 µM (inactive). The GI50 in assay [7] was 89.3 µM (inactive); in [8], 110 µM (inactive); in assay [9], 38.5 µM (inactive); in assay [10] it was 42.5 µM (inactive); in assay [11], 83 µM (inactive); in [12], 69.5 µM (inactive). The GI50 in assay [13] was 67.8 µM (inactive); in assay [14], 47.2 µM (inactive); in assay [15], 20.7 µM (inactive); in assay [16], 23.8 µM (inactive); in assay [17], 50.2 µM; in assay [18], 23.3 µM (inactive). In addition, the values for the GI50 in assay [19] and in [20] were 14.3 µM (inactive) and 12.9 µM (inactive), respectively.
